According to patent US10597388B2, “Pyridazinone herbicides” (FMC CORPORATION, priority 2014, dated 2020):

How the values were obtained:
Test in all cases: Test D controlled growth environment herbicide test, pre- and postemergence
Type in all cases: in vivo
[1] = tested on: blackgrass (Alopecurus myosuroides)
From the text: (§1) Seeds of plant species selected from bluegrass (annual bluegrass, Poa annua), blackgrass (Alopecurus myosuroides), Canada thistle (Cirsium arvense), canarygrass (Phalaris minor), chickweed (common chickweed, Stellaria media), geranium, cutleaf (cutleaf geranium, Geranium dissectum), galium (catchweed bedstraw, Galium aparine), bromegrass, downy (downy bromegrass, Bromus tectorum), field poppy (Papaver rhoeas), field violet (Viola arvensis), foxtail, green (green foxtail, Setaria viridis), deadnettle (henbit deadnettle, Lamium amplexicaule), ryegrass, Italian (Italian ryegrass, Lolium multiflorum), kochia (Kochia scoparia), lambsquarters (Chenopodium album), oilseed rape (Brassica napus), pigweed (Amaranthus retroflexus), chamomile (scentless chamomile, Matricaria inodora), Russian thistle (Salsola kali), speedwell (bird's-eye speedwell, Veronica persica), barley, spring (spring barley, Hordeum vulgare), wheat, spring (spring wheat, Triticum aestivum), buckwheat, wild (wild buckwheat, Polygonum convolvulus), mustard, wild (wild mustard, Sinapis arvensis), oat, wild (wild oat, Avena fatua), radish, wild (wild radish, Raphanus raphanistrum), windgrass (Apera spica-venti), barley, winter (winter barley, Hordeum vulgare), and wheat, winter (winter wheat, Triticum aestivum) were planted into a silt loam soil and treated preemergence with test chemicals formulated in a non-phytotoxic solvent mixture which included a surfactant.
(§2) At the same time, these species were planted in pots containing Redi-Earth® planting medium (Scotts Company, 14111 Scottslawn Road, Marysville, Ohio 43041) comprising spaghnum peat moss, vermiculite, wetting agent and starter nutrients and treated with postemergence applications of the test chemicals formulated in the same manner. Plants ranged in height from 2 to 18 cm (1- to 4-leaf stage). Treated plants and controls were maintained in a controlled growth environment for 14 to 21 d after which time all species were compared to controls and visually evaluated. Plant response ratings, summarized in Table D, are based on a scale of 0 to 100 where 0 is no effect and 100 is complete control. A dash (-) response means no test result.

[2] = tested on: bromegrass, downy (downy bromegrass, Bromus tectorum)
From the text: as §1, §2

[3] = tested on: chickweed (common chickweed, Stellaria media)
From the text: as §1, §2

[4] = tested on: deadnettle (henbit deadnettle, Lamium amplexicaule)
From the text: as §1, §2

[5] = tested on: foxtail, green (green foxtail, Setaria viridis)
From the text: as §1, §2

[6] = tested on: mustard, wild (wild mustard, Sinapis arvensis)
From the text: as §1, §2

[7] = tested on: oat, wild (wild oat, Avena fatua)
From the text: as §1, §2

[8] = tested on: oilseed rape (Brassica napus)
From the text: as §1, §2

[9] = tested on: ryegrass, Italian (Italian ryegrass, Lolium multiflorum)
From the text: as §1, §2

[10] = tested on: speedwell (bird's-eye speedwell, Veronica persica)
From the text: as §1, §2

[11] = tested on: wheat, spring (spring wheat, Triticum aestivum)
From the text: as §1, §2

[12] = tested on: wheat, winter (winter wheat, Triticum aestivum)
From the text: as §1, §2

[13] = Postemergence, 31 g ai/ha, scale 0 to 100 (0 no effect, 100 complete control)
[14] = Postemergence, 125 g ai/ha, visual rating on scale 0 (no effect) to 100 (complete control), 14 to 21 d
[15] = Postemergence, 250 g ai/ha, scale 0 to 100 (0 no effect, 100 complete control)
[16] = Preemergence, 62 g ai/ha, scale 0 to 100 (0 no effect, 100 complete control)
[17] = Preemergence, 125 g ai/ha, scale 0 to 100 (0 no effect, 100 complete control)
[18] = Preemergence, 250 g ai/ha, scale 0 to 100, 0 no effect, 100 complete control
[19] = postemergence, 62 g ai/ha, scale 0 to 100, 0 no effect, 100 complete control

Cc1nn(C)c(=O)c(-c2cccc3ccccc23)c1O [Compound 11, 5-hydroxy-2,6-dimethyl-4-(1-naphthalenyl)-3(2H)-pyridazinone]
Blackgrass plant response rating [1, 13]: 25 | Plant response rating, Blackgrass [1, 14]: 70 | Plant response rating, Blackgrass [1, 15]: 70 | Plant response rating (scale of 0 to 100), Blackgrass ([1]; Preemergence, 31 g ai/ha): 5 | Plant response rating, Blackgrass [1, 16]: 30 | Plant response rating, Blackgrass [1, 17]: 55 | Blackgrass plant response rating [1, 18]: 75 | Plant response rating, Blackgrass [1, 19]: 40 | Bromegrass, Downy plant response rating [2, 13]: 15 | Plant response rating, Bromegrass, Downy [2, 14]: 25 | Plant response rating, Bromegrass, Downy [2, 15]: 50 | Plant response rating (scale of 0 to 100), Bromegrass, Downy ([2]; Preemergence, 31 g ai/ha): 5 | Plant response rating, Bromegrass, Downy [2, 16]: 5 | Plant response rating, Bromegrass, Downy [2, 17]: 20 | Plant response rating, Bromegrass, Downy [2, 18]: 55 | Plant response rating, Bromegrass, Downy [2, 19]: 15 | Chickweed plant response rating [3, 13]: 45 | Plant response rating, Chickweed [3, 14]: 80 | Plant response rating, Chickweed [3, 15]: 100 | Plant response rating (scale of 0 to 100), Chickweed ([3]; Preemergence, 31 g ai/ha): 20 | Plant response rating, Chickweed [3, 16]: 100 | Plant response rating, Chickweed [3, 17]: 100 | Plant response rating, Chickweed [3, 18]: 100 | Plant response rating, Chickweed [3, 19]: 90 | Deadnettle plant response rating [4, 13]: 75 | Plant response rating, Deadnettle [4, 14]: 100 | Plant response rating, Deadnettle [4, 15]: 100 | Plant response rating (scale of 0 to 100), Deadnettle ([4]; Preemergence, 31 g ai/ha): 10 | Plant response rating, Deadnettle [4, 16]: 15 | Plant response rating, Deadnettle [4, 17]: 50 | Plant response rating, Deadnettle [4, 18]: 100 | Plant response rating, Deadnettle [4, 19]: 100 | Foxtail, Green plant response rating [5, 13]: 5 | Plant response rating, Foxtail, Green [5, 14]: 65 | Plant response rating, Foxtail, Green [5, 15]: 70 | Plant response rating (scale of 0 to 100), Foxtail, Green ([5]; Preemergence, 31 g ai/ha): 10 | Plant response rating, Foxtail, Green [5, 16]: 10 | Plant response rating, Foxtail, Green [5, 17]: 15 | Plant response rating, Foxtail, Green [5, 18]: 65 | Plant response rating, Foxtail, Green [5, 19]: 25 | Mustard, Wild plant response rating [6, 13]: 65 | Plant response rating, Mustard, Wild [6, 14]: 75 | Plant response rating, Mustard, Wild [6, 15]: 95 | Plant response rating (scale of 0 to 100), Mustard, Wild ([6]; Preemergence, 31 g ai/ha): 0 | Plant response rating, Mustard, Wild [6, 16]: 20 | Plant response rating, Mustard, Wild [6, 17]: 75 | Plant response rating, Mustard, Wild [6, 18]: 100 | Plant response rating, Mustard, Wild [6, 19]: 70 | Oat, Wild plant response rating [7, 13]: 40 | Plant response rating, Oat, Wild [7, 14]: 85 | Plant response rating, Oat, Wild [7, 15]: 98 | Plant response rating (scale of 0 to 100), Oat, Wild ([7]; Preemergence, 31 g ai/ha): 15 | Plant response rating, Oat, Wild [7, 16]: 70 | Plant response rating, Oat, Wild [7, 17]: 80 | Plant response rating, Oat, Wild [7, 18]: 85 | Plant response rating, Oat, Wild [7, 19]: 75 | Oilseed Rape plant response rating [8, 13]: 0 | Plant response rating, Oilseed Rape [8, 14]: 20 | Plant response rating, Oilseed Rape [8, 15]: 55 | Plant response rating (scale of 0 to 100), Oilseed Rape ([8]; Preemergence, 31 g ai/ha): 5 | Plant response rating, Oilseed Rape [8, 16]: 0 | Plant response rating, Oilseed Rape [8, 17]: 5 | Plant response rating, Oilseed Rape [8, 18]: 5 | Plant response rating, Oilseed Rape [8, 19]: 15 | Ryegrass, Italian plant response rating [9, 13]: 80 | Plant response rating, Ryegrass, Italian [9, 14]: 85 | Plant response rating, Ryegrass, Italian [9, 15]: 90 | Plant response rating (scale of 0 to 100), Ryegrass, Italian ([9]; Preemergence, 31 g ai/ha): 85 | Plant response rating, Ryegrass, Italian [9, 16]: 90 | Plant response rating, Ryegrass, Italian [9, 17]: 100 | Plant response rating, Ryegrass, Italian [9, 18]: 100 | Plant response rating, Ryegrass, Italian [9, 19]: 85 | Speedwell plant response rating [10, 13]: 0 | Plant response rating, Speedwell [10, 14]: 100 | Plant response rating, Speedwell [10, 15]: 100 | Plant response rating (scale of 0 to 100), Speedwell ([10]; Preemergence, 31 g ai/ha): 0 | Plant response rating, Speedwell [10, 16]: 15 | Plant response rating, Speedwell [10, 17]: 85 | Plant response rating, Speedwell [10, 18]: 100 | Plant response rating, Speedwell [10, 19]: 100 | Wheat, Spring plant response rating [11, 13]: 15 | Plant response rating, Wheat, Spring [11, 14]: 25 | Plant response rating, Wheat, Spring [11, 15]: 25 | Plant response rating (scale of 0 to 100), Wheat, Spring ([11]; Preemergence, 31 g ai/ha): 5 | Plant response rating, Wheat, Spring [11, 16]: 15 | Plant response rating, Wheat, Spring [11, 17]: 25 | Plant response rating, Wheat, Spring [11, 18]: 35 | Plant response rating, Wheat, Spring [11, 19]: 15 | Wheat, Winter plant response rating [12, 13]: 10 | Plant response rating, Wheat, Winter [12, 14]: 15 | Plant response rating, Wheat, Winter [12, 15]: 25 | Plant response rating (scale of 0 to 100), Wheat, Winter ([12]; Preemergence, 31 g ai/ha): 0 | Plant response rating, Wheat, Winter [12, 16]: 0 | Plant response rating, Wheat, Winter [12, 17]: 20 | Plant response rating, Wheat, Winter [12, 18]: 30 | Plant response rating, Wheat, Winter [12, 19]: 15
